# Laboratory results taken from the supplement of paper PMC10307832.
# Tests used:
# Assay in all cases: relative viability (nuclei count vs DMSO), 5 days (fraction); higher = more cells survive
# [1] = compound: N[C@@H]1CCCN(c2c(/C=C3\SC(=O)NC3=O)cccc2-c2ccccc2)C1 [AZD1208] + CS(=O)(=O)N1CCN(Cc2cc3nc(-c4cccc5[nH]ncc45)nc(N4CCOCC4)c3s2)CC1 [Pictilisib] (partner 1 µM)
# How it was run: (§1)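 Lung cancer cell lines, seeded in 1536-well plates, were treated the following day by pin tool with a single drug or with five library-drug doses (not always all listed) in √10 steps on top of a fixed anchor-drug dose. Cells were fixed and nuclei stained in one step after 5 days, and nuclei were counted. Relative viability is the nuclei count for treated wells divided by that for vehicle wells, reported as medians of duplicate plates.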
# [2] = compound: N[C@@H]1CCCN(c2c(/C=C3\SC(=O)NC3=O)cccc2-c2ccccc2)C1 [AZD1208] + CC(=O)Nc1cccc(-n2c(=O)n(C3CC3)c(=O)c3c(Nc4ccc(I)cc4F)n(C)c(=O)c(C)c32)c1 [Trametinib] (partner 0.02 µM)
# How it was run: as §1
# [3] = compound: N[C@@H]1CCCN(c2c(/C=C3\SC(=O)NC3=O)cccc2-c2ccccc2)C1 [AZD1208] + COc1cc2c(Oc3ccc(NC(=O)C4(C(=O)Nc5ccc(F)cc5)CC4)cc3F)ccnc2cc1OCCCN1CCOCC1 [Foretinib] (partner 0.25 µM)
# How it was run: as §1
# [4] = compound: CN1CCN(CC1)C2=CC(=C(C=C2)NC3=NC(=C(S3)C(=O)C4=C(C=CC=C4Cl)Cl)N)OC [XMD14-99] + Cc1nc(Nc2ncc(C(=O)Nc3c(C)cccc3Cl)s2)cc(N2CCN(CCO)CC2)n1 [Dasatinib] (partner 0.075 µM)
# How it was run: as §1
Cell Line,relative viability ([1]; first compound 0.08 µM),relative viability ([1]; first compound 0.253 µM),relative viability ([1]; first compound 0.8 µM),relative viability ([1]; first compound 2.53 µM),relative viability ([1]; first compound 8 µM),relative viability ([2]; first compound 0.08 µM),relative viability ([2]; first compound 0.253 µM),relative viability ([2]; first compound 0.8 µM),relative viability ([2]; first compound 2.53 µM),relative viability ([2]; first compound 8 µM),relative viability ([3]; first compound 0.08 µM),relative viability ([3]; first compound 0.253 µM),relative viability ([3]; first compound 0.8 µM),relative viability ([3]; first compound 2.53 µM),relative viability ([3]; first compound 8 µM),relative viability ([4]; first compound 0.08 µM),relative viability ([4]; first compound 0.8 µM),relative viability ([4]; first compound 2.53 µM),relative viability ([4]; first compound 8 µM)
SW 1573,0.411,0.418,0.421,0.347,0.344,0.433,0.438,0.44,0.419,0.317,0.709,0.872,0.837,0.573,0.653,0.401,0.42,0.52,0.325
ChaGo-K-1,0.979,0.698,0.644,0.537,0.484,0.884,0.905,0.78,0.88,0.806,0.855,0.903,0.808,0.875,0.73,0.564,0.6,0.51,0.483
COR-L 105,0.369,0.3,0.353,0.366,0.451,0.435,0.366,0.408,0.625,0.378,0.849,1.09,1.05,–,1,0.345,0.388,0.255,0.281
NCI-H1975,0.285,0.252,0.242,0.28,0.238,0.304,0.341,0.283,0.36,0.249,1.06,0.959,0.855,0.853,0.972,0.307,0.304,0.312,0.248
NCI-H2009,0.725,0.811,0.75,0.553,0.714,0.264,0.249,0.256,0.224,0.207,1.23,1.2,1.14,1.26,1.16,0.263,0.294,0.261,0.164
SK-LU-1,0.459,0.607,0.532,0.567,0.431,0.46,0.531,0.446,0.491,0.585,0.794,0.917,0.8,0.721,0.661,0.182,0.204,0.181,0.163
NCI-H2347,0.467,0.782,0.558,0.495,0.495,0.316,0.27,0.257,0.264,0.26,0.867,0.671,0.987,0.917,0.742,0.284,0.308,0.352,0.204
HCC-366,0.112,0.0978,0.123,0.092,0.0878,0.328,0.327,0.297,0.286,0.221,0.903,0.985,0.843,0.949,0.899,0.596,0.609,0.603,0.528
EMC-BAC-2,0.537,0.528,0.463,0.474,0.47,0.852,0.83,0.777,0.806,0.702,1.01,1.04,1,1.02,0.727,0.311,0.334,0.334,0.286
NCI-H3122,0.506,0.486,0.447,0.481,0.524,0.201,0.221,0.192,0.203,0.165,0.991,1.05,0.924,1.08,0.945,0.81,0.745,0.754,0.503
NCI-H358,0.35,0.284,0.333,0.299,0.283,0.118,0.109,0.12,0.12,0.102,0.594,0.692,0.573,0.698,0.522,0.157,0.175,0.151,0.141
NCI-H1944,0.33,0.345,0.306,0.298,0.277,0.402,0.433,0.359,0.328,0.283,0.829,0.838,0.774,0.688,0.571,0.193,0.239,0.222,0.201
EPLC-272H,0.362,0.278,0.349,0.324,0.271,0.312,0.268,0.279,0.254,0.315,0.714,0.71,0.618,0.564,0.478,0.323,0.325,0.402,0.392
NCI-H1915,0.874,0.899,0.832,0.849,0.84,0.271,0.288,0.247,0.277,0.232,1.12,1.09,1.11,1.11,1.03,0.28,0.289,0.293,0.236
NCI-H647,0.463,0.371,0.37,0.339,0.364,0.383,0.503,0.567,0.471,0.358,1.07,1.25,1.04,1.16,0.897,0.12,0.216,0.202,0.167
